Test systems include NCI/ADR-RES ovarian; HS 578T breast; PC-3 prostate; CCRF-CEM leukemia; U251 CNS; UACC-62 melanoma; SNB-75 CNS; SK-MEL-2 melanoma; SK-MEL-28 melanoma; MALME-3M melanoma.
Common to all, as to assay: DTP human tumour cell line panel, 48 h

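Protocol summary: plate cells (96-well), add compound at 5 concentrations, incubate 48 h, interpolate endpoints linearly. At the GI50, growth is halved. TGI denotes the concentration required for complete inhibition of growth.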 A value given as a limit tells only on which side of the number the result lay.

In the case of `CC1(C)N=C(N)N=C(N)N1c1ccc(CCC(=O)Nc2ccc(S(=O)(=O)F)cc2)cc1`, the GI50 was 98.3 µM in the experiment with NCI/ADR-RES ovarian; greater than 75.8 µM in the experiment on HS 578T breast; 0.0593 µM with PC-3 prostate; 0.73 µM in the experiment with CCRF-CEM leukemia; 2.01 µM in the experiment with U251 CNS; 0.388 µM with UACC-62 melanoma. For the same compound, the GI50 with SNB-75 CNS is 2.42 µM; with SK-MEL-2 melanoma, 26.4 µM; in the experiment on SK-MEL-28 melanoma, 8.22 µM; in the experiment with MALME-3M melanoma it was 10.9 µM. Also, the total growth inhibition concentration (TGI) in the experiment with NCI/ADR-RES ovarian is greater than 100 µM; in the experiment on HS 578T breast, greater than 100 µM; in the experiment on PC-3 prostate it was greater than 72.1 µM; in the experiment with CCRF-CEM leukemia, greater than 100 µM; in the experiment on U251 CNS, greater than 100 µM; in the experiment with UACC-62 melanoma, greater than 100 µM. The total growth inhibition concentration (TGI) with SNB-75 CNS, in the experiment with SK-MEL-2 melanoma, in the experiment on SK-MEL-28 melanoma and with MALME-3M melanoma was greater than 100 µM each time.
For the compound `N#CC1c2ccccc2C=CN1C(=O)CCCl` (stereo unspecified), the GI50 in the experiment on NCI/ADR-RES ovarian was 23 µM; with HS 578T breast, 17.4 µM; in the experiment on PC-3 prostate, 14.1 µM; in the experiment on CCRF-CEM leukemia, 3.45 µM; in the experiment with U251 CNS, 17.6 µM; with UACC-62 melanoma, 14.9 µM. Further, the GI50 in the experiment on SNB-75 CNS is 10.6 µM; in the experiment on SK-MEL-2 melanoma, 13.6 µM; with SK-MEL-28 melanoma, 10.7 µM; in the experiment with MALME-3M melanoma it was 2 µM. Besides, the TGI in the experiment on NCI/ADR-RES ovarian amounted to 66.3 µM; in the experiment on HS 578T breast, 47.3 µM; in the experiment on PC-3 prostate it was 28.5 µM; in the experiment with CCRF-CEM leukemia it was 21.2 µM; in the experiment on U251 CNS it was 32 µM; in the experiment on UACC-62 melanoma it was 29.7 µM. Also, the TGI in the experiment with SNB-75 CNS was 25.3 µM; in the experiment on SK-MEL-2 melanoma it was 28 µM; in the experiment with SK-MEL-28 melanoma it was 24 µM; in the experiment on MALME-3M melanoma, 4.01 µM.
For the compound `Nc1nc2c(c3cnccc13)C(c1ccc(Cl)c(Cl)c1)Cc1cnccc1-2` (stereo unspecified), the GI50 in the experiment on NCI/ADR-RES ovarian is 0.43 µM; in the experiment with HS 578T breast it was 0.818 µM; with PC-3 prostate, 0.544 µM; with CCRF-CEM leukemia it was 0.388 µM; with U251 CNS, 0.375 µM; with UACC-62 melanoma, 0.352 µM. Also, the GI50 was 0.368 µM with SNB-75 CNS, 0.401 µM in the experiment with SK-MEL-2 melanoma, 2.85 µM in the experiment on SK-MEL-28 melanoma and 0.915 µM with MALME-3M melanoma. Also, the total growth inhibition concentration (TGI) in the experiment on NCI/ADR-RES ovarian amounted to 7.69 µM; with HS 578T breast, 22 µM; in the experiment on PC-3 prostate, 12.8 µM; in the experiment on CCRF-CEM leukemia, 12.6 µM; in the experiment with U251 CNS, 2.6 µM; in the experiment on UACC-62 melanoma, 2.44 µM. Moreover, the TGI stood at 12.1 µM in the experiment with SNB-75 CNS, 1.86 µM with SK-MEL-2 melanoma, 19 µM in the experiment with SK-MEL-28 melanoma and 18.6 µM in the experiment with MALME-3M melanoma.
Take `Nc1ncc(Cc2ccc3c(c2)OCO3)c(N)n1`: the total growth inhibition concentration (TGI) with NCI/ADR-RES ovarian, in the experiment on HS 578T breast, in the experiment with PC-3 prostate, in the experiment on CCRF-CEM leukemia, in the experiment on U251 CNS and in the experiment on UACC-62 melanoma was greater than 100 µM each time. Besides, the concentration for total growth inhibition (TGI) in the experiment on SK-MEL-28 melanoma and in the experiment on MALME-3M melanoma was greater than 100 µM each time.
As for `CNCc1cccc2c1OCCOCCOCCN(C)S(=O)(=O)c1ccc(cc1)-c1cnc(N)c(n1)C(=O)N2`, the GI50 with NCI/ADR-RES ovarian was 14.3 µM; in the experiment with HS 578T breast, 0.663 µM; in the experiment on PC-3 prostate it was 1.94 µM; in the experiment with CCRF-CEM leukemia it was 0.549 µM; in the experiment on U251 CNS, 1.53 µM; in the experiment on UACC-62 melanoma, 1.3 µM. Also, the GI50 in the experiment with SNB-75 CNS was 0.218 µM; in the experiment with SK-MEL-2 melanoma it was 1.42 µM; with SK-MEL-28 melanoma, 1.74 µM; in the experiment with MALME-3M melanoma it was 1.53 µM. Besides, the TGI in the experiment on NCI/ADR-RES ovarian is 32.6 µM; with HS 578T breast it was 3.64 µM; in the experiment on PC-3 prostate it was 8.09 µM; in the experiment on CCRF-CEM leukemia, 3.95 µM; in the experiment on U251 CNS it was 3.37 µM; with UACC-62 melanoma, 2.87 µM. For the same compound, the TGI in the experiment with SNB-75 CNS amounted to 17.6 µM; with SK-MEL-2 melanoma it was 4.27 µM; in the experiment on SK-MEL-28 melanoma, 3.56 µM; with MALME-3M melanoma it was 3.72 µM.
Consider `COc1cc(CNc2nc3cc(N)cc(N)c3nc2-c2ccccc2)cc(OC)c1`, for which the GI50 is 5.47 µM in the experiment on NCI/ADR-RES ovarian; 8.53 µM in the experiment on HS 578T breast; 3.05 µM in the experiment with PC-3 prostate; 1.72 µM in the experiment on CCRF-CEM leukemia; 5.08 µM in the experiment on U251 CNS; 5.31 µM in the experiment on UACC-62 melanoma. Besides, the figures for the GI50 in the experiment on SK-MEL-2 melanoma, with SK-MEL-28 melanoma and in the experiment on MALME-3M melanoma were 7.77 µM, 1.76 µM and 4.86 µM, respectively. For the same compound, the concentration for total growth inhibition (TGI) is 33.2 µM in the experiment with NCI/ADR-RES ovarian; greater than 100 µM in the experiment on HS 578T breast; 14.4 µM in the experiment on PC-3 prostate; 5.68 µM with CCRF-CEM leukemia; greater than 100 µM in the experiment on U251 CNS; 30.7 µM in the experiment with UACC-62 melanoma. Further, the total growth inhibition concentration (TGI) in the experiment with SK-MEL-2 melanoma was 41 µM; in the experiment with SK-MEL-28 melanoma, 8.62 µM; in the experiment with MALME-3M melanoma, 33.8 µM.
In the case of `CC1(C)OC[C@@H]([C@@]2(CO[Si](c3ccccc3)(c3ccccc3)C(C)(C)C)CC=CC(=O)O2)O1`, the GI50 is 5.64 µM in the experiment with NCI/ADR-RES ovarian; 9.01 µM with HS 578T breast; 5.92 µM in the experiment on PC-3 prostate; 6.63 µM in the experiment with CCRF-CEM leukemia; 5.94 µM in the experiment on U251 CNS; 5.79 µM with UACC-62 melanoma. Besides, the GI50 in the experiment with SK-MEL-2 melanoma was 6.23 µM; with SK-MEL-28 melanoma it was 16.7 µM; in the experiment on MALME-3M melanoma it was 2.42 µM. Besides, the TGI was 35.1 µM in the experiment on NCI/ADR-RES ovarian; greater than 100 µM with HS 578T breast; greater than 100 µM in the experiment with PC-3 prostate; greater than 100 µM in the experiment with CCRF-CEM leukemia; 25.4 µM in the experiment with U251 CNS; 84.5 µM with UACC-62 melanoma. In addition, the concentration for total growth inhibition (TGI) is greater than 100 µM in the experiment with SK-MEL-2 melanoma, 48.3 µM in the experiment on SK-MEL-28 melanoma and 8.48 µM with MALME-3M melanoma.
For the compound `CC(=O)O[C@H]1C(=O)[C@@]2(C)C([C@H](OC(=O)c3ccccc3)[C@]3(O)C[C@H](OC(=O)[C@H](O)[C@@H](NC(=O)c4ccccc4)c4ccccc4)C(C)=C1C3(C)C)[C@]1(OC(C)=O)CO[C@@H]1C[C@@H]2O` (stereo partly specified), the GI50 was 1.81 µM in the experiment with NCI/ADR-RES ovarian; 0.0129 µM in the experiment with PC-3 prostate; 0.0141 µM in the experiment on CCRF-CEM leukemia; 0.0111 µM in the experiment on U251 CNS; 0.0207 µM with UACC-62 melanoma; less than 0.005 µM in the experiment with SNB-75 CNS. For the same compound, the GI50 was 0.0149 µM in the experiment on SK-MEL-2 melanoma and 0.0139 µM in the experiment on SK-MEL-28 melanoma. Also, the concentration for total growth inhibition (TGI) is 41.9 µM in the experiment with NCI/ADR-RES ovarian; greater than 50 µM in the experiment with HS 578T breast; greater than 50 µM in the experiment with PC-3 prostate; greater than 50 µM in the experiment with CCRF-CEM leukemia; greater than 50 µM with U251 CNS; greater than 50 µM with UACC-62 melanoma. Moreover, the TGI is 0.0186 µM in the experiment with SNB-75 CNS, greater than 50 µM in the experiment on SK-MEL-2 melanoma and greater than 50 µM in the experiment on SK-MEL-28 melanoma.

One may read the GI50 as the concentration at which growth is held to half of that of the control. The term TGI denotes the concentration giving total growth inhibition. Read a low TGI as more potent growth arrest.

The values are drawn from PubChem BioAssay (NCI).
